Assay results taken from BindingDB's records for doi:10.1021/acs.jnatprod.5b00062 (Albert-Ludwigs-University of Freiburg, 2015).

How the values were obtained:
[1] = biological target: Sodium/potassium-transporting ATPase subunit alpha-1 (Rattus norvegicus, UniProt P06685); test: Inhibition of Wistar rat kidney Na+,K+-ATPase alpha1 after 2 hrs
[2] = biological target: Sarcoplasmic/endoplasmic reticulum calcium ATPase 1 (Rattus norvegicus, UniProt Q64578); test: Inhibition of Wistar rat EDL muscle SERCA1a after 1 hr
Chain of Sarcoplasmic/endoplasmic reticulum calcium ATPase 1 (Q64578 whole entry): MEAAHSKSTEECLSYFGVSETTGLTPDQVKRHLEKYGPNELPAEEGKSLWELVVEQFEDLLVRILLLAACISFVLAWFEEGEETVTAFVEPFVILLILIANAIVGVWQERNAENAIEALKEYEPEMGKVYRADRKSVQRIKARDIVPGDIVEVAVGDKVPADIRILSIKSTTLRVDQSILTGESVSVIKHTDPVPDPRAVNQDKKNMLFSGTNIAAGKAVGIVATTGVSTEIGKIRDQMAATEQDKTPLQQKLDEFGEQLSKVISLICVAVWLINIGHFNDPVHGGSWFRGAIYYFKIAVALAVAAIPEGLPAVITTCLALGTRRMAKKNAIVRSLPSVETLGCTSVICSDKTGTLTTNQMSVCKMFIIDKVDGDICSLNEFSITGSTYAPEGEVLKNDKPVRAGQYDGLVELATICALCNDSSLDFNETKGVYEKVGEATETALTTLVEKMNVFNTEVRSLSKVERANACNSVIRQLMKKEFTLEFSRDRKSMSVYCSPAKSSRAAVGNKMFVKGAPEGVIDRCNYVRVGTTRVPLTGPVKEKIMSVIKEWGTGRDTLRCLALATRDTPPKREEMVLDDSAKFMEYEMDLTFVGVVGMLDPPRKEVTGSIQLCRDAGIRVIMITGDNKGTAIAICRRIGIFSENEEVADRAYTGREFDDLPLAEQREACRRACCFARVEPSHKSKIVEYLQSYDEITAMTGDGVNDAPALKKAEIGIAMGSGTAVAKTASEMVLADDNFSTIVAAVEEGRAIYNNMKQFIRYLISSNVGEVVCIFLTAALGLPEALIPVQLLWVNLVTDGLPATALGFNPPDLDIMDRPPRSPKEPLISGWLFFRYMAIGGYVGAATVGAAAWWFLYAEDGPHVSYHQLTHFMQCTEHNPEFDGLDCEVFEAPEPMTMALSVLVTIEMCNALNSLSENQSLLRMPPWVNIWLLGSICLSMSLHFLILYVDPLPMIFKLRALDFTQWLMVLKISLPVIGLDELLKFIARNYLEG

Q: How did the IC50 [1] turn out when CC[C@H](C)[C@H]1O[C@]2(CC[C@@H]1C)C[C@@H]1C[C@@H](C/C=C(\C)[C@@H](O[C@H]3C[C@H](OC)[C@@H](O[C@H]4C[C@H](OC)[C@@H](O)[C@H](C)O4)[C@H](C)O3)[C@@H](C)/C=C/C=C3\CO[C@@H]4[C@H](O)C(C)=C[C@@H](C(=O)O1)[C@]34O)O2 [ABAMECTIN] was run?
A: The IC50 was 8.23 µM.

Q: What about the IC50 [2] of the same compound?
A: The IC50 was 16.9 µM.
